{"source": "patent US20160220581A1", "about": "“CHROMIUM COMPOSITIONS FOR THE TREATMENT OR PREVENTION OF DIABETIC RETINOPATHY” (JDS Therapeutics, LLC, priority 2015, published 2016)", "assay_type_in_all_cases": "in vivo, rat", "key": {"retinal lipid oxidation": {"system": "retinal lipid oxidation", "assay": "Retinal lipid oxidation by LC-MS of retinal lysate (Example 3)", "conditions": "versus other chromium complexes at equivalent total dosages of chromium", "method": "(§1) General procedures are conducted as described above. Retinal lipids are extracted from the retinal cellular lysate and characterized by liquid chromatography-mass spectrometry."}, "[1]": {"system": "retinal capillary basement membrane", "assay": "Retinal capillary basement membrane thickening (Example 7)", "conditions": "versus other chromium complexes at equivalent total dosages of chromium", "method": "General procedures are conducted as described above. Retinal capillary basement membrane thickening is characterized by physical examination of the eye using standard techniques."}, "retinal microangiopathy": {"system": "retinal microangiopathy", "assay": "Retinal microangiopathy (Example 8)", "conditions": "versus other chromium complexes at equivalent total dosages of chromium", "method": "General procedures are conducted as described above. Retinal microangiopathy is characterized using standard ophthalomogic techniques."}, "retina of diabetic rats": {"system": "retina of diabetic rats", "assay": "Histologic examination of retina in diabetic rats", "method": "(§2) Diabetes was induced with streptozotocin [(STZ), 55 mg/kg] by intraperitoneal injection in male Long-Evans rats. Three weeks after STZ injection, rats were divided into four groups, namely, untreated normal controls, normal rats receiving CrHis (110 μg/kg/day); untreated diabetics and diabetics treated with CrHis (110 μg/kg/day) orally for 12 weeks.\nAfter the eye extirpation, tissue (retina) of each rat was also examined grossly. The tissue was removed for histologic study, washed with normal saline, and immersion-fixed in 10% buffered formalin immediately upon removal. They were gradually dehydrated, embedded in paraffin, cut into 5-μm sections, and stained with hematoxylin and eosin for histologic examination according to standard procedures.\nGeneral procedures were conducted as described above. Retinas were highly organized in the normal (control) rats, with intact layers. The retinas were disorganized in the diabetic rats with impaired layers. […] Similar experiments are conducted with other chromium species such as chromium nicotinate and chromium picolinate."}, "[2]": {"system": "glucose transporter 3 (GLUT3)", "assay": "Western blot of retina GLUT3 expression in diabetic rats", "conditions": "diabetic rats treated with CrHis, P<0.05, FIG. 1 Panel B", "method": "as §2\n(§3) After rats were sacrificed, both eyes were either (1) enucleated and frozen at −80° C. for the measurements of the target biomarker(s) and/or other analysis or (2) are examined immediately post-sacrifice for morphological changes. […]\n(§4) Equal amounts of protein (50 μg) were electrophoresed and subsequently transferred onto a nitrocellulosemembrane (Schleicher and Schuell Inc., Keene, N.H., USA). […] Bands were analyzed densitometrically using an image analysis system (Image J; National Institute of Health, Bethesda, USA).\n(§5) General procedures were conducted as described above. […] The retina MDA content was measured by high performance liquid chromatography (HPLC, Shimadzu, Tokyo, Japan) using a Shimadzu UV-vis SPD-10 AVP detector and a CTO-10 AS VP column in a mobile phase consisting of 30 mM KH2PO4 and methanol (82.5+17.5, v/v; pH 3.6) at a flow rate of 1.2 ml/min. Column effluents were monitored at 250 nm and the volume was 20 μl. […]\n(§6) Data are means of quadruplets of assays and expressed as relative to control (%). […]"}, "retina insulin": {"system": "retina insulin", "assay": "Western blot of retina insulin expression in diabetic rats", "conditions": "diabetic rats treated with CrHis, P<0.05, FIG. 1 Panel C", "method": "as §2, §3, §4, §5, §6"}, "[3]": {"system": "hemoglobin glycation and/or retinal protein glycation", "assay": "Hemoglobin glycation and retinal protein glycation (Example 5)", "conditions": "versus other chromium complexes at equivalent total dosages of chromium", "method": "General procedures are conducted as described above. […]. Retinal proteins are extracted from the retinal cellular lysate and characterized by liquid chromatography-mass spectrometry and/or Western Blotting."}, "[4]": {"system": "glucose transporter 1 (GLUT 1)", "assay": "Western blot of retina GLUT 1 expression in diabetic rats", "conditions": "diabetic rats treated with CrHis, P<0.05, FIG. 1 Panel A", "method": "as §2, §3, §4, §5, §6"}, "retinal photoreceptors": {"system": "retinal photoreceptors", "assay": "Free radical oxidation of retinal photoreceptors (Example 4)", "conditions": "versus other chromium complexes at equivalent total dosages of chromium", "method": "as §1"}, "diabetic retinopathy": {"system": "diabetic retinopathy", "assay": "Co-administration of chromium histidinate with insulin or metformin in diabetic retinopathy (Example 10)", "method": "General procedures are conducted as described above. Co-administration of chromium histidinate with insulin or metformin is performed. Retinal biomarker(s) are extracted from the retinal cellular lysate and characterized by liquid chromatography-mass spectrometry."}, "retinal hard exudates": {"system": "retinal hard exudates", "assay": "Retinal hard exudates (Example 9)", "conditions": "versus other chromium complexes at equivalent total dosages of chromium", "method": "General procedures are conducted as described above. Retinal hard exudates are extracted from the retinal cellular lysate and characterized by liquid chromatography-mass spectrometry."}, "normal rats": {"system": "normal rats", "assay": "CrHis supplementation in normal rats: body weight and blood/serum biochemical parameters", "conditions": "CrHis group, CrHis 110 μg/kg/day orally", "method": "as §2\n(§7) Twenty eight Long Evans rats per experiment, aged 8 weeks with 250±20 g of body weight were used in these experiments. All the animals were kept and maintained under standard guidelines. The animals were kept and maintained at 22±2° C., humidity of 55%±5% and 12/12-hour light/dark cycle. The rats were weighed every week and at the end of the study. Blood sample was collected from the tail vein of each rat for the measurement of biochemical efficacy and safety markers.\n(§8) The CrHis was given in the water and administered at a concentration of 110 μg/kg bw/d) to get 9.16 μg elemental Cr (kg body/d), which is an equivalent dose of 614 μg Cr for a 70-kg adult human based on previous work. The Cr concentration of the water provided the control group was negligible (<1 μg/L). The water provided the Cr-supplemented group was initially prepared as a solution containing 3000 μg CrHis/L of water. The […] water was diluted to achieve the target Cr intake per group on the basis of measured water intake. To induce experimental diabetes, STZ was dissolved in citrate buffer (pH 4.5) and injected once intraperitoneally at a dose of 55 mg/kg to the remainder of the animals. A control group was given citrate buffer via intraperitoneal injection.\n(§9) Fourteen rats were treated with STZ (55 mg/kg body weight) through intraperitoneal injection. All rats were then fasted for 16 hour prior to treatment, but they had access to drinking water. The animals were divided into 4 groups: group I (Control) rats received citrate buffer intraperitoneally and isotonic saline, orally; group II (Control+CrHis) rats were administered chromium histidinate orally (110 μg/kg body weight) daily for a period of […]; group III (Diabetic) rats received single injection of STZ (55 mg/kg body weight) intraperitoneally and were also given isotonic saline, orally for the duration of the study; group IV (Diabetic+CrHis) diabetic rats were administered chromium orally as chromium histidinate (110 μg/kg body weight) daily for a period of 12 weeks after the induction of diabetes.\n(§10) Body weight and blood glucose concentrations were monitored weekly. Blood was collected from the tail vein of the rats. Blood glucose was determined by one touch glucometer (ACCU-Check Active, Roche Diagnostics, Mannheim, Germany) after the injection for 72 h. Before STZ injection, glucose concentrations of study rats and controls were measured and compared.\n(§11) Blood samples were centrifuged at 3000×g for 10 min and sera were separated. Serum glucose concentrations were measured by using ACCU-Chek Active (Roche Diagnostics, Basel, Switzerland). Serum insulin levels were measured with the Rat Insulin Kit (Linco Research, St Charles, Mo.) by enzyme-linked immunosorbent assay (ELISA, Elx-800, BioTek Instruments, Winooski, Vt.). Serum concentrations of total cholesterol (TC) were measured by diagnostic kits (Sigma Diagnostics, St Louis, Mo.). Blood glycosylated haemoglobin (HbAlc) was also measured by routine kit (Alfabiotech, Milano, Italy) using the autoanalyzer.\nData were analyzed statistically using one-way ANOVA. […]"}, "[5]": {"system": "retinal lipoprotein membrane content", "assay": "Loss of retinal lipoprotein membrane content (Example 6)", "conditions": "versus other chromium complexes at equivalent total dosages of chromium", "method": "as §1"}, "diabetic rats": {"system": "diabetic rats", "assay": "CrHis supplementation in STZ-induced diabetic rats: body weight and blood/serum biochemical parameters", "method": "as §2, §7, §8, §9, §10, §11\nData were analyzed statistically using one-way ANOVA. In the analyses for the biomarker(s), the repeated statement was added in the general linear model. The group differences were attained by the Fisher's multiple comparison test [Statistical Package for the Social Sciences (SPSS)]. A P value of less than 0.05 was considered significant."}, "[6]": {"system": "retina malondialdehyde (MDA)", "assay": "Retina MDA content by HPLC in diabetic rats", "conditions": "diabetic rats treated with CrHis, FIG. 1 Panel D", "method": "as §2\nGeneral procedures were conducted as described above. After rats were sacrificed, both eyes were enucleated and frozen at −80° C. for the measurements of MDA, GLUT 1, GLUT3 and insulin. The retina MDA content was measured by high performance liquid chromatography (HPLC, Shimadzu, Tokyo, Japan) using a Shimadzu UV-vis SPD-10 AVP detector and a CTO-10 AS VP column in a mobile phase consisting of 30 mM KH2PO4 and methanol (82.5+17.5, v/v; pH 3.6) at a flow rate of 1.2 ml/min. Column effluents were monitored at 250 nm and the volume was 20 μl. The retina homogenate (10%, w/v) was prepared in 10 mM phosphate buffer (pH 7.4), centrifuged at 13,000×g for 10 min at 4° C., and the supernatant was collected and stored at −80° C. for MDA analysis."}, "[7]": {"conditions": "STZ + CrHis group, diabetic rats, CrHis 110 μg/kg/day orally for 12 weeks"}, "[8]": {"conditions": "diabetic retinopathy rats treated with CrHis"}}, "data": [{"substance": "chromium histidinate [CrHis]", "values": [{"measurement": "Reducing the retinal lipid oxidation", "setting": "retinal lipid oxidation", "result": "more efficacious"}, {"measurement": "Preventing retinal capillary basement membrane from thickening", "setting": "[1]", "result": "more efficacious"}, {"measurement": "Decreasing microangiopathy", "setting": "retinal microangiopathy", "result": "more efficacious"}, {"measurement": "Retina organization (histology)", "setting": "retina of diabetic rats; CrHis group compared to the diabetes group", "result": "surprisingly improved"}, {"measurement": "Reducing the physiological effects of diabetic retinopathy", "setting": "retina of diabetic rats; versus other chromium complexes at equivalent total dosages of chromium", "result": "more efficacious"}, {"measurement": "Expression of GLUT3 in the retina", "setting": "[2]", "result": "reversed these changes to near control levels"}, {"measurement": "Expression of insulin in the retina", "setting": "retina insulin", "result": "reversed these changes to near control levels"}, {"measurement": "Reducing hemoglobin glycation and/or retinal protein glycation", "setting": "[3]", "result": "more efficacious"}, {"measurement": "Expression of GLUT1 in the retina", "setting": "[4]", "result": "reversed these changes to near control levels"}, {"measurement": "Reducing the free radical oxidation of retinal photoreceptors", "setting": "retinal photoreceptors", "result": "more efficacious"}, {"measurement": "Effect in treating diabetic retinopathy", "setting": "diabetic retinopathy", "result": "synergistic effect"}, {"measurement": "Reducing hard exudates", "setting": "retinal hard exudates", "result": "more efficacious"}, {"measurement": "Body weight", "setting": "normal rats", "result": 340, "unit": "g"}, {"measurement": "Glucose", "setting": "normal rats", "result": 100, "unit": "mg/dL"}, {"measurement": "Glycosylated hemoglobin", "setting": "normal rats", "result": 0.20, "unit": "mg/g"}, {"measurement": "Insulin", "setting": "normal rats", "result": 50.3, "unit": "μU/mL"}, {"measurement": "Total cholesterol", "setting": "normal rats", "result": 80, "unit": "mg/dL"}, {"measurement": "Decreasing the loss of retinal lipoprotein membrane content", "setting": "[5]", "result": "more efficacious"}, {"measurement": "Body weight, change in words", "setting": "diabetic rats; CrHis-treated diabetic rats compared to the untreated diabetic group, P<0.001", "result": "significantly increased"}, {"measurement": "Body weight", "setting": "diabetic rats; [7]", "result": 250, "unit": "g"}, {"measurement": "Glucose", "setting": "diabetic rats; [7]", "result": 290, "unit": "mg/dL"}, {"measurement": "Glycosylated hemoglobin", "setting": "diabetic rats; [7]", "result": 0.45, "unit": "mg/g"}, {"measurement": "Insulin", "setting": "diabetic rats; [7]", "result": 25.0, "unit": "μU/mL"}, {"measurement": "Total cholesterol", "setting": "diabetic rats; [7]", "result": 218, "unit": "mg/dL"}, {"measurement": "Blood glucose level, change in words", "setting": "diabetic rats; [8]", "result": "significant increases"}, {"measurement": "HbAlc level, change in words", "setting": "diabetic rats; [8]", "result": "significant increases"}, {"measurement": "Insulin level, change in words", "setting": "diabetic rats; [8]", "result": "significant increases"}, {"measurement": "MDA expression in retina", "setting": "[6]", "result": "statistically significant reduction"}]}]}
